This note sets out measurements from PubChem BioAssay AID1919001 (Molecular Pharmacology Branch, DTP, NCI, 2023).

Where “and” joins values, the source holds several entries; their conditions need not be identical. Equal entries are not always repeated.

The assay concerns 699152-130-R-J1-PDC complex spheroid growth. Briefly: Anticancer human tumor 699152-130-R-J1-PDC patient-derived pancreatic carcinoma cell line growth inhibition [AhR]. The following applies: for viability, T/C: stronger effect = lower value. An excerpt:
Multicellular complex tumor spheroid response to aryl hydrocarbon receptor antagonists in combination with a variety of drugs and investigational agents in selected tumor cell lines
The current study was undertaken to assess response to aryl hydrocarbon receptor antagonists in combination with standard-of-care drugs and investigational agents in solid tumor complex spheroid models. Complex spheroids include a stromal component modeled by human endothelial cells (HUVEC) and fibroblasts modeled by human mesenchymal stem cells (MSCs). The concentration ranges selected for each drug and investigational agent were based upon clinically achievable concentrations if the clinical Cmax of the agent was known.
Compounds. The drugs and investigational agents: BAY 2416964 (NSC825713), GNF351 (NSC835774), CH-223191 (NSC835775), CPI-455 (NSC825282), aza-TdCyd (NSC777586), decitabine (NSC127716), belinostat (NSC758774), entinostat (NSC756642), pevonedistat (NSC761192), tazemetostat (NSC777109), talazoparib (NSC765396), olaparib (NSC753686), selinexor (NSC780203), nedisertib (M3814, NSC802822), bortezomib (NSC756655), venetoclax (NSC766270), doxorubicin (NSC123127), elimusertib (BAY189344, NSC800525), ceralasertib (AZD6738, NSC777638), TAK-243 (NSC785004), alisertib (NSC759677), etoposide (NSC141540), topotecan (NSC609699), eribulin (NSC707389), gemcitabine (NSC613327), carboplatin (NSC241240), cisplatin (NSC119875), and SN-38 (NSC673596) were obtained from the National Cancer Institute (NCI) Developmental Therapeutics Program Chemical Repository (32). The FDA-approved anticancer drug set is available from the Developmental Therapeutics Program at https://dtp.cancer.gov/organization/dscb/obtaining/available plates.htm. […] The stock solutions were prepared in dimethyl sulfoxide (DMSO, Sigma-Aldrich, St. Louis, MO, cat. D2650), except for the platinum compounds which were prepared in saline (Quality Biological, Gaithersburg, MD, cat. 114-055-101), at 800-fold the tested concentration and stored at -70 degrees C prior to their use. All drugs and investigational agents were tested over a range starting from a high concentration at or near the clinical Cmax and decreasing in half-log increments. If the clinical Cmax for an agent had not been determined, the highest concentration tested was 10 microM (Table 1).
Cell Culture. All cells were maintained in an incubator at 37 degrees C and 5% CO2 with 95% humidity. The PDC lines were cultured according to standard operating procedures established by the NCI PDMR (https://pdmr.cancer.gov). Briefly, all PDCs were thawed and cultured in Matrigel-coated flasks prepared with a working solution of 1X Ham's F-12 nutrient mix, without supplementation (Invitrogen, Waltham, MA, cat. 11765054), 100 U/mL penicillin-streptomycin (Invitrogen, cat. 15140122), and 2.5% Matrigel (Corning Inc., Corning, NY, cat. 354248) for the first three passages. All PDCs were cultured in complete DMEM/F-12 media containing advanced DMEM/F-12 (Invitrogen, cat. 12634028), 4.9% defined fetal bovine serum, heat inactivated (HyClone Laboratories Inc., Logan, UT, cat. SH30070.03HI), 389 ng/mL hydrocortisone (Sigma-Aldrich, cat. H4001), 9.7 ng/mL human EGF recombinant protein (Invitrogen, cat. PHG0313), 23.4 microg/mL adenine (Sigma-Aldrich, cat. A2786), 97.3 U/mL penicillin-streptomycin (Invitrogen, cat. 15140122), 1.9 mM L-glutamine (Invitrogen, cat. 25030081), and 9.7 microM Y-27632 dihydrochloride (Tocris Bioscience, Bristol, United Kingdom, cat. 1254). The PDCs were cultured in complete DMEM/F12 media without 10 microM Y-27632 dihydrochloride for at least two passages prior to the screen. The established cell lines NCI-H1341 and […] were cultured in DMEM/F-12, HEPES (Invitrogen, cat. 11330032), 5% defined fetal bovine serum (HyClone Laboratories Inc., cat. SH30070.03), ITS premix universal culture supplement [insulin (5 microg/mL), transferrin (5 microg/mL), and selenious acid (5 ng/mL)] […]

The mark [1] stands for this setting: curve of first compound, second compound 0.1 µM.
Setting [2] is: curve of first compound, second compound 0.316 µM.
[3] abbreviates: curve of first compound, second compound 1 µM.
The mark [4] stands for this setting: curve of first compound, second compound 3.16 µM.
Setting [5] is: curve of first compound, second compound 10 µM.
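Also: compound exposure lasted 7 days after spheroids had grown for 3 days.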

In the case of `CC[C@@]1(O)C(=O)OCc2c1cc1n(c2=O)Cc2cc3c(CN(C)C)c(O)ccc3nc2-1` + Cc1ccccc1N=Nc1ccc(NC(=O)c2ccnn2C)c(C)c1, the IC50 (as a rule, the concentration at which inhibition is half-maximal) under setting [1] is over 0.1 µM; the IC50 under setting [2] is 0.075 µM; the IC50 under setting [3] was over 0.1 µM; the half-maximal inhibitory concentration (IC50) under setting [4] is over 0.1 µM; the IC50 under setting [5] is over 0.1 µM. Moreover, the viability, T/C (as a rule, the result in the treated group divided by that in the control group, in per cent) runs as follows: (second compound 0.1 µM, first compound 0.000316 µM) 95.9%; (second compound 0.1 µM, first compound 0.001 µM) 99%; (second compound 0.1 µM, first compound 0.00316 µM) 101%; (second compound 0.1 µM, first compound 0.01 µM) 82.7%; (second compound 0.1 µM, first compound 0.0316 µM) 68.8%; (second compound 0.1 µM, first compound 0.1 µM) 55.1%. The viability, T/C reads like this: (second compound 0.316 µM, first compound 0.000316 µM) 97.9%; (second compound 0.316 µM, first compound 0.001 µM) 94%; (second compound 0.316 µM, first compound 0.00316 µM) 99.6%; (second compound 0.316 µM, first compound 0.01 µM) 80.1%; (second compound 0.316 µM, first compound 0.0316 µM) 63.5%; (second compound 0.316 µM, first compound 0.1 µM) 45.5%. The viability, T/C runs as follows: (second compound 1 µM, first compound 0.000316 µM) 94.2%; (second compound 1 µM, first compound 0.001 µM) 98.1%; (second compound 1 µM, first compound 0.00316 µM) 94.2%; (second compound 1 µM, first compound 0.01 µM) 77.9%; (second compound 1 µM, first compound 0.0316 µM) 60.5%; (second compound 1 µM, first compound 0.1 µM) 50.6%. The viability, T/C is, setting by setting: (second compound 3.16 µM, first compound 0.000316 µM) 96.2%; (second compound 3.16 µM, first compound 0.001 µM) 105%; (second compound 3.16 µM, first compound 0.00316 µM) 92.9%; (second compound 3.16 µM, first compound 0.01 µM) 86.5%; (second compound 3.16 µM, first compound 0.0316 µM) 60.9%; (second compound 3.16 µM, first compound 0.1 µM) 54.3%. Further, the viability, T/C (second compound 10 µM, first compound 0.000316 µM) was 107%; the viability, T/C (second compound 10 µM, first compound 0.001 µM) is 117%; the viability, T/C (second compound 10 µM, first compound 0.00316 µM) was 86.6%; the viability, T/C (second compound 10 µM, first compound 0.01 µM) is 82.7%; the viability, T/C (second compound 10 µM, first compound 0.0316 µM) is 70%; the viability, T/C (second compound 10 µM, first compound 0.1 µM) is 50.8%.

`COc1cccc2c1C(=O)c1c(O)c3c(c(O)c1C2=O)CC(O)(C(=O)CO)CC3OC1CC(N)C(O)C(C)O1` (centres undefined): the viability, T/C by setting is: (compound 0.0316 µM) 71.1% and 70.4% and 82.5%; (compound 0.1 µM) 64.3% and 56.2% and 87.1%; (compound 0.316 µM) 48.5% and 41.1% and 55.1%; (compound 1 µM) 30.3% and 29.7% and 31.8%; (compound 3.16 µM) 3.77% and 2.01% and 2.55%; (compound 10 µM) 8.13% and 7.62% and 11.8%. The IC50 (curve of compound) was 0.319 µM and 0.179 µM and 0.444 µM.

Consider `CCN(c1cc(-c2ccc(CN3CCOCC3)cc2)cc(C(=O)NCc2c(C)cc(C)[nH]c2=O)c1C)C1CCOCC1` + Cc1ccccc1N=Nc1ccc(NC(=O)c2ccnn2C)c(C)c1, for which the IC50 was over 3 µM under setting [1]; over 3 µM under setting [2]; over 3 µM under setting [3]; over 3 µM under setting [4]; over 3 µM under setting [5]. Besides, the viability, T/C was 111% (second compound 0.1 µM, first compound 0.00949 µM); 113% (second compound 0.1 µM, first compound 0.03 µM); 108% (second compound 0.1 µM, first compound 0.0949 µM); 104% (second compound 0.1 µM, first compound 0.3 µM); 109% (second compound 0.1 µM, first compound 0.949 µM); 104% (second compound 0.1 µM, first compound 3 µM). For the same compound, the viability, T/C by setting is: (second compound 0.316 µM, first compound 0.00949 µM) 91.2%; (second compound 0.316 µM, first compound 0.03 µM) 95.6%; (second compound 0.316 µM, first compound 0.0949 µM) 102%; (second compound 0.316 µM, first compound 0.3 µM) 105%; (second compound 0.316 µM, first compound 0.949 µM) 109%; (second compound 0.316 µM, first compound 3 µM) 114%. Further, the viability, T/C (second compound 1 µM, first compound 0.00949 µM) is 118%; the viability, T/C (second compound 1 µM, first compound 0.03 µM) was 105%; the viability, T/C (second compound 1 µM, first compound 0.0949 µM) is 109%; the viability, T/C (second compound 1 µM, first compound 0.3 µM) is 109%; the viability, T/C (second compound 1 µM, first compound 0.949 µM) was 90.8%; the viability, T/C (second compound 1 µM, first compound 3 µM) was 118%. The viability, T/C is, setting by setting: (second compound 3.16 µM, first compound 0.00949 µM) 97.1%; (second compound 3.16 µM, first compound 0.03 µM) 104%; (second compound 3.16 µM, first compound 0.0949 µM) 108%; (second compound 3.16 µM, first compound 0.3 µM) 98.7%; (second compound 3.16 µM, first compound 0.949 µM) 99.7%; (second compound 3.16 µM, first compound 3 µM) 101%. For the same compound, the viability, T/C runs as follows: (second compound 10 µM, first compound 0.00949 µM) 113%; (second compound 10 µM, first compound 0.03 µM) 113%; (second compound 10 µM, first compound 0.0949 µM) 118%; (second compound 10 µM, first compound 0.3 µM) 124%; (second compound 10 µM, first compound 0.949 µM) 127%; (second compound 10 µM, first compound 3 µM) 113%.

`CC[C@@]1(O)C(=O)OCc2c1cc1n(c2=O)Cc2cc3c(CN(C)C)c(O)ccc3nc2-1`: the viability, T/C (compound 0.000316 µM) was 103% and 108% and 86.6%; the viability, T/C (compound 0.001 µM) was 91.2% and 96.4% and 99%; the viability, T/C (compound 0.00316 µM) is 104% and 102% and 90%; the viability, T/C (compound 0.01 µM) is 103% (2×) and 83.5%; the viability, T/C (compound 0.0316 µM) is 90.8% and 91.3% and 70%; the viability, T/C (compound 0.1 µM) is 62.8% and 70.9% and 53.5%. For the same compound, the IC50 (curve of compound) was over 0.1 µM.
